# Entries after “also recorded” stand apart in the source; their conditions may differ.
# How the values were obtained:
# Assay type in all cases: cell-based, human
# CHRNA7 [1] = test: Quantitative PCR of CHRNA7 transcription in THP-1 monocyte cultures; settings: for CHRNA7 transcription (quantitative PCR): FIG. 6; for N/M ratio (CHRNA7/CHRFAM7A transcription) / CHRNA7 ("N") transcription relative to TPA-treated unstimulated condition: FIG. 7; for CHRNA7 ("N") transcription relative to TPA-treated unstimulated condition: overnight
# Method: (§1) The human acute monocytic leukemia cell line THP-1 (ATCC TIB-202, ATCC, US) was cultured in RPMI 1640 with GlutaMax (Gibco, Life Technologies, UK) supplemented with 10% fetal bovine serum (FBS), (Gibco, Life Technologies, UK) and 1% Antibiotic/Antimycotic (Gibco, Life Technologies, UK) at 37° C. and 5% CO2.
# (§2) 1,6 million cells were seeded in each well in 6-well plates and differentiated to macrophages by a 48 h treatment of 100 nM TPA (12-O-tetradecanoylphorbol-13-acetate), (Cell Signaling Technology, US). Cells were treated with 100 μM Docosahexaenoic acid (DHA), (Sigma Aldrich, Germany), 10 ng/ul Amyloid beta 1-40 (Aβ), (ApexBio, US), 10 μM PNU-120596, (Sigma Aldrich, Germany), 40 μM Galanthamine hydrobromide, (Sigma Aldrich, Germany) and combinations overnight (approximately 20 h).
# (§3) Total RNA was isolated with the RNeasy Plus Mini kit (Qiagen) using genomic DNA eliminator columns. THP-1 cells were lysed directly in the wells using 350 μl RLT Plus according to the protocol and stored at −80° C. The frozen lysate was incubated at 37° C. in a water bath until completely thawed and homogenized using QIAshredder (Qiagen) spin columns. RNA was eluted in 30 μl RNase free water and the quantity assessed using the NanoDrop ND-1000 Spectrophotometer (NanoDrop Technologies).
# (§4) 1 μg total RNA was reverse transcribed using the QuantiTect cDNA Reverse Transcription Kit (Qiagen). Due to low CHRNA7 expression (Cq values>38, Table 2), we increased RNA input to 2 μg, changed the reverse transcription kit to High Capacity Reverse Transcription Kit (Life Technologies AS) and the cDNA was preamplified using TaqMan PreAmp Master Mix (Life Technologies AS), running 18 cycles and diluted 1:20 (FIG. 7). We then obtained Cq values<27 (average 25,4) for CHRNA7 and <20 (average 18,6 for CHRFAM7A). Absolute quantification was run using CHRFAM7A and CHRNA7 synthetic oligonucleotides standards (GeneArt, Life Technologies AS). 2.5 ul cDNA diluted 1:20 after preamplification was applied per qPCR reaction using TaqMan gene expression assays CHRFAM7A (Hs04189909_m1) and CHRNA7 (Hs01063372_m1) (Thermo Fisher) and TaqMan Gene expression Master Mix (Life Technologies AS) in a total volume of 10 μl and run in triplicates on Quant Studio 7 (Applied Biosystems).
# CHRNA7 [2] = test: Western blot of CHRNA7 (56 kDa band) in TPA differentiated THP-1 cells; settings: for CHRNA7 (56 kDa protein) expression, conclusion in words: Table 1 / FIG. 4, both experiments
# Method: The cellular samples were tested for the presence of the α7 subtype of the nicotinic acetylcholine receptor (nAChR) by Western blot analysis on THP-1 cells that were incubated with and without Abeta1-42 and with and without DHA. The purpose of this was to show monocytic membrane expression of nAChR and to explore altered regulation of this receptor in response to DHA stimulation.
# The THP-1 cells were seeded in 6-well plates with 2 mL per well at a concentration of 830 000 cells/mL (experiment 1) or 860 000 cells/ml (experiment 2), and differentiated using 100 nM TPA (12-O-Tetradecanoylphorbol-13-Acetate) for 24 hours. For the experiments, DHA was added to give a concentration of 100 uM (experiment 1) or 10 uM and 100 uM (experiment 2), and Aβ42 was added at a final concentration of 2.5 ng/ul.
# The cells were incubated overnight (18 hours). Each DHA experiment had parallels of cells not incubated with DHA. After incubation the cells were kept cold, scraped loose and transferred to 15-ml tubes. Cells were washed twice with cold PBS before resuspended in 100 ul PBS and transferred to an Eppendorf tube. The cells were lysed through five freeze thaw cycles, and total protein in each sample was determined by the BCA protein assay. Samples were stored at −80° C. upon analysis.
# Western blot analysis was performed cat no 21379-1-AP, Proteintech, using 1:1000 using dilution. The secondary antibody was a goat anti-rabbit IgG-HRP (cat no 4030-05, Southern Biotech) diluted 1:2000. Solvents for dilutions were as described below.
# Samples were dissolved in 4× Laemmli buffer w/ b-ME (BioRad and, respectively) denatured at 95° C. for 5 min, and a quantity of 12 μg protein/sample/well was loaded to the gel. A volume of 10 uL of Precision Plus protein Dual Xtra Color Standards (BioRad) was used for molecular weight estimation. The samples were resolved in 8-16% gradient SDS-PAGE (Criterion TGX precast gels, BioRad) and immunoblotted onto PVDF membranes (GE Healthcare). Membranes were blocked in 5% non-fat dried milk in 1× Tris Buffered Saline containing 0.1% Tween20 (1×TBS-T) (BioRad) at room temperature for 1 h and incubated overnight at 4° C. with primary antibodies in 1×TBS-T with 1% non-fat dried milk. After washing, the membranes were incubated with secondary antibody in 5% non-fat dried milk in 1×TBS-T for 1 h at room temperature. The blots were visualized by ECL Plus Western blotting detection system (GE Healthcare) according to the supplier's instructions. Membranes were visualized on the LAS-3000 mini (Fujifilm Corporation) and band intensities were quantified using MultiGauge analysis software (Fujifilm Corporation).
# Bands presented are at the predicted MW of the nAChR (56 kDa).
# (§5) DHA: Docosahexaenoic acid, Aβ1-40 peptides: the conventional amyloid beta peptide containing 40 amino acids.
# CHRFAM7A [3] = test: Western blot of CHRFAM7A in differentiated THP-1 cells; settings: FIG. 5
# Excerpt: as §5
# THP-1 cells = test: IP LC-MS of Abeta-40 degradation in monocytic THP-1 cells
# Method: Firstly, a cell model was used to study the effect of the omega-3 fatty acid DHA on degradation of amyloid beta. Here, the THP-1 cells were incubated with and without DHA (1 μM), and subsequently with Abeta (1-40 aa, 10 ng/μL). Secondly, monocyte from healthy controls (NC) and patients with neurodegenerative diseases (AD) were isolated. In both these cases, the cells were lysed and IP LC-MS was performed.
# In FIG. 1, each bar in the graph represents the accumulated cleavage sites on each position along the 40 amino acids in Abeta 1-40. Thus the bar contains peptides of various lengths, but with the same start or end amino acid. Three parallels were analysed for each condition/sample group, which refers to the triplicate incubations of each condition, with or without DHA.
# Monocytic THP-1 cells were used as a model system, and IP LC-MS as analytical approach to investigate the effect of DHA on monocytic Abeta-40 processing.
# A THP-1 cell line culture was matured and differentiated, split to be control and stimulated parallels and this was replicated to be performed a total of 7 times (controls n=7; DHA stimulated n=7). Test cells were incubated with DHA overnight, and all samples were incubated with Abeta-40 for 1 to 2 hours. The cells were lysed by freeze-thaw cycles prior to immunoprecipitation performed with two commercial and one in-house antibody. […]
# CHRNA7 [4] = test: Western blot of CHRNA7 (56 kDa band) in TPA differentiated THP-1 cells; settings: FIG. 5; co-stimulation with DHA and Aβ1-40 peptide, compared with DHA alone
# CHRFAM7A [5] = test: Quantitative PCR of CHRFAM7A transcription in THP-1 monocyte cultures; settings: for CHRFAM7A transcription (quantitative PCR): FIG. 6; for CHRFAM7A ("M") transcription relative to TPA-treated unstimulated condition: FIG. 7, overnight
# Method: as §1, §2, §3, §4
# [6] = co-stimulation with DHA and Aβ1-40 peptide, compared with DHA alone
# [7] = stimulus as labelled plus Amyloid β 1-40 10 ng/ul
# [8] = stimulus as labelled, nothing else added, 100 μM DHA, 10 μM PNU-120596, 40 μM Galanthamine hydrobromide, 10 ng/ul Aβ 1-40
molecule,measurement,setting,value
"CC/C=C\C/C=C\C/C=C\C/C=C\C/C=C\C/C=C\CCC(=O)O [DHA, (4Z, 7Z, 10Z, 13Z, 16Z, 19Z)-4,7, 10, 13, 16, 19-docosahexaenoic acid]",CHRNA7 transcription (quantitative PCR),CHRNA7 [1]; DHA alone,increase
same,CHRNA7 transcription (quantitative PCR),CHRNA7 [1]; [6],more pronounced
same,N/M ratio (CHRNA7/CHRFAM7A transcription),CHRNA7 [1]; [7],increased; also recorded: higher
same,"CHRNA7 (""N"") transcription relative to TPA-treated unstimulated condition",CHRNA7 [1]; [7],unaltered; also recorded: increases
same,N/M ratio (CHRNA7/CHRFAM7A transcription),"CHRNA7 [1]; stimulus as labelled, no Amyloid β added",increased
same,"CHRNA7 (""N"") transcription relative to TPA-treated unstimulated condition",CHRNA7 [1]; [8],stable
same,~56 kDa Band signal intensity,"CHRNA7 [2]; Exp 1, 100 uM Dha alone, TPA differentiated THP-1, 18 hours",3.5E+06
same,~56 kDa Band signal intensity,"CHRNA7 [2]; Exp 1, Ab1-42 (2.5 ng/ul) + 100 uM Dha, 18 hours",3.0E+06
same,~56 kDa Band signal intensity,"CHRNA7 [2]; Exp 2, Ab1-42 (2.5 ng/ul) + 10 uM Dha, 18 hours",2.6E+06
same,~56 kDa Band signal intensity,"CHRNA7 [2]; Exp 2, Ab1-42 (2.5 ng/ul) + 100 uM Dha, 18 hours",2.7E+06
same,CHRNA7 expression (Western blot),"CHRNA7 [2]; FIG. 5, DHA alone",increase
same,"CHRNA7 (56 kDa protein) expression, conclusion in words",CHRNA7 [2],upregulation
same,CHRFAM7A expression (Western blot),CHRFAM7A [3]; DHA alone,decrease
same,CHRFAM7A expression (Western blot),CHRFAM7A [3]; [6],more pronounced
same,"Abeta cut pattern (enzymatic activities), DHA versus no DHA","THP-1 cells; DHA 1 μM, then Abeta 1-40 10 ng/μL, FIG. 1",differing enzymatic activities
same,average ratio of catabolic peptides in DHA versus control samples,"THP-1 cells; DHA overnight, then Abeta-40 for 1 to 2 hours, controls n=7, DHA stimulated n=7, semi-quantitative",1.3 (12% RSD)
same,CHRNA7 expression (Western blot),CHRNA7 [4],more pronounced
same,CHRFAM7A transcription (quantitative PCR),CHRFAM7A [5]; DHA alone,decrease
same,CHRFAM7A transcription (quantitative PCR),CHRFAM7A [5]; [6],more pronounced
same,"CHRFAM7A (""M"") transcription relative to TPA-treated unstimulated condition",CHRFAM7A [5]; [7],reduces
same,"CHRFAM7A (""M"") transcription relative to TPA-treated unstimulated condition",CHRFAM7A [5]; [8],reduced
COc1cc(OC)c(NC(=O)Nc2cc(C)on2)cc1Cl [PNU-120596],"CHRNA7 (""N"") transcription relative to TPA-treated unstimulated condition",CHRNA7 [1]; [8],smaller changes
same,"CHRFAM7A (""M"") transcription relative to TPA-treated unstimulated condition",CHRFAM7A [5]; [8],smaller changes
Ab1-42: the conventional amyloid beta peptide containing 42 amino acids,~56 kDa Band signal intensity,"CHRNA7 [2]; Exp 1, Ab1-42 only, 2.5 ng/ul, 18 hours",1.7E+06
same,~56 kDa Band signal intensity,"CHRNA7 [2]; Exp 2, Ab1-42 only, 2.5 ng/ul, 18 hours",2.1E+06
same,"CHRNA7 (56 kDa protein) expression, conclusion in words",CHRNA7 [2],lower expression
Amyloid 13: the conventional amyloid beta peptide containing 40 amino acids,"CHRNA7 (""N"") transcription relative to TPA-treated unstimulated condition",CHRNA7 [1]; [8],reduced
same,"CHRFAM7A (""M"") transcription relative to TPA-treated unstimulated condition",CHRFAM7A [5]; [8],reduced
